From publication PMC3375835 (Tetrahedron letters, 2012)
One block for each compound: values may come before it.

How the values were obtained:
Format in all cases: cell-based
[1] = Cytotoxicity to mock-infected MT-4 cells; conditions: human
HIV-1NL4–3 = assay: Anti-HIV activity against HIV-1NL4–3 infected MT-4 cells; conditions: for EC50 (concentration of the test sample that was effective to suppress HIV replication by 50%): '-' = No activity (footnote b); for EC50: read-out: EC50 (concentration of the test sample that was effective to suppress HIV replication by 50%), '-' = No activity (footnote b)
mock-infected MT-4 cells = assay: Cytotoxicity to mock-infected MT-4 cells; conditions: read-out: CC50 (concentration of test sample that was cytotoxic to 50% of the mock-infected cells)

Structure (SMILES): Cc1cn([C@H]2C[C@H](N=[N+]=[N-])[C@@H](CO)O2)c(=O)[nH]c1=O [AZT, 3′-azido-3′-deoxythymidine, reference compound]
- CC50 [1]: 140 µM
- SI (Selectivity index = CC50/EC50) (HIV-1NL4–3; CC50/EC50): 1385

Structure (SMILES): C=C(C)[C@@H]1CC[C@]2(C(=O)O)CC[C@]3(C)[C@H](CC[C@@H]4[C@@]5(C)CC[C@H](OC(=O)CC(C)(C)C(=O)O)C(C)(C)[C@@H]5CC[C@]43C)[C@@H]12 [Bevirimat (14), 3-O-(3′,3′-dimethylsuccinyl)betulinic acid, reference compound]
- CC50 [1]: 13.2 µM

Structure (SMILES): C#CCOC1CCC2(C)C(CCC3(C)C2CCC2C4C(C(=C)C)CCC4(CO[Si](C)(C)C(C)(C)C)CCC23C)C1(C)C (stereo not drawn) [Compound 2]
- EC50 (concentration of the test sample that was effective to suppress HIV replication by 50%) (HIV-1NL4–3): - ^b

Structure (SMILES): C#CCOC(=O)OC1CCC2(C)C(CCC3(C)C2CCC2C4C(C(=C)C)CCC4(CO[Si](C)(C)C(C)(C)C)CCC23C)C1(C)C (stereo not drawn) [Compound 3]
- EC50 (concentration of the test sample that was effective to suppress HIV replication by 50%) (HIV-1NL4–3): -

Structure (SMILES): C#CCOC1CCC2(C)C(CCC3(C)C2CCC2C4C(C(=C)C)CCC4(CO)CCC23C)C1(C)C (stereo not drawn) [Compound 4]
- EC50 (concentration of the test sample that was effective to suppress HIV replication by 50%) (HIV-1NL4–3): -

Structure (SMILES): C#CCOC(=O)OC1CCC2(C)C(CCC3(C)C2CCC2C4C(C(=C)C)CCC4(CO)CCC23C)C1(C)C (stereo not drawn) [Compound 5]
- EC50 (concentration of the test sample that was effective to suppress HIV replication by 50%) (HIV-1NL4–3): -

Further lines, with some results ahead:

- EC50 (concentration of the test sample that was effective to suppress HIV replication by 50%) (HIV-1NL4–3): -
Structure (SMILES): C#CCOC1CCC2(C)C(CCC3(C)C2CCC2C4C(C(=C)C)CCC4(COC(=O)CC(C)(C)C(=O)O)CCC23C)C1(C)C (stereo not drawn) [Compound 7]

- EC50 (concentration of the test sample that was effective to suppress HIV replication by 50%) (HIV-1NL4–3): inactive and -
Structure (SMILES): C=C(C)C1CCC2(CO[Si](C)(C)C(C)(C)C)CCC3(C)C(CCC4C5(C)CCC(OC(=O)OCc6cn(C7CC(n8cc(C)c(=O)[nH]c8=O)OC7CO)nn6)C(C)(C)C5CCC43C)C12 (stereo not drawn) [Compound 9]

- EC50 (HIV-1NL4–3): 0.35 µM
Structure (SMILES): C=C(C)C1CCC2(COC(=O)CC(C)(C)C(=O)O)CCC3(C)C(CCC4C5(C)CCC(OCc6cn(C7CC(n8cc(C)c(=O)[nH]c8=O)OC7CO)nn6)C(C)(C)C5CCC43C)C12 (stereo not drawn) [Compound 13]
- CC50 (mock-infected MT-4 cells): > 4.6 µM

- EC50 (HIV-1NL4–3): 0.067 µM
Structure (SMILES): C#CCOC(=O)[C@]12CC[C@@H](C(=C)C)[C@@H]1[C@H]1CC[C@@H]3[C@@]4(C)CC[C@H](OC(=O)CC(C)(C)C(=O)O)C(C)(C)[C@@H]4CC[C@@]3(C)[C@]1(C)CC2 [Compound 15]
- CC50 (mock-infected MT-4 cells): 15.3 µM

- EC50 (HIV-1NL4–3): 0.1 µM
Structure (SMILES): C=C(C)[C@@H]1CC[C@]2(C(=O)OCc3cn([C@H]4C[C@H](n5cc(C)c(=O)[nH]c5=O)O[C@@H]4CO)nn3)CC[C@]3(C)[C@H](CC[C@@H]4[C@@]5(C)CC[C@H](OC(=O)CC(C)(C)C(=O)O)C(C)(C)[C@@H]5CC[C@]43C)[C@@H]12 [Compound 16]
- CC50 (mock-infected MT-4 cells): 11.2 µM
